According to PubChem BioAssay (NCI):
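Where inhibition never reached the appropriate level, the endpoint shown equals the highest concentration tested. Otherwise, values were interpolated linearly from a five-concentration, 48-hour dose response in 96-well plates. The concentration for 50% growth inhibition is given as GI50. TGI marks complete inhibition of growth.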

How the values were obtained:
Test in all cases: DTP human tumour cell line panel, 48 h
ACHN renal = tested on: ACHN renal
DU-145 prostate = tested on: DU-145 prostate
EKVX NSCLC = tested on: EKVX NSCLC
K-562 leukemia = tested on: K-562 leukemia
M14 melanoma = tested on: M14 melanoma
MDA-MB-231 breast = tested on: MDA-MB-231 breast
OVCAR-5 ovarian = tested on: OVCAR-5 ovarian
SK-MEL-28 melanoma = tested on: SK-MEL-28 melanoma
SNB-19 CNS = tested on: SNB-19 CNS
UACC-62 melanoma = tested on: UACC-62 melanoma

Row | Structure (SMILES) | GI50 (ACHN renal) | TGI (ACHN renal) | GI50 (DU-145 prostate) | TGI (DU-145 prostate) | GI50 (EKVX NSCLC) | TGI (EKVX NSCLC) | GI50 (K-562 leukemia) | TGI (K-562 leukemia) | GI50 (M14 melanoma) | TGI (M14 melanoma) | GI50 (MDA-MB-231 breast) | TGI (MDA-MB-231 breast) | GI50 (OVCAR-5 ovarian) | TGI (OVCAR-5 ovarian) | GI50 (SK-MEL-28 melanoma) | TGI (SK-MEL-28 melanoma) | GI50 (SNB-19 CNS) | TGI (SNB-19 CNS) | GI50 (UACC-62 melanoma) | TGI (UACC-62 melanoma)
1 | C=C(C)[C@@H]1CC[C@]2(C(=O)O)CC[C@]3(C)[C@H](CC[C@@H]4[C@@]5(C)CCC(NC(=O)c6cccc(OC(C)=O)c6OC(C)=O)C(C)(C)[C@@H]5CC[C@]43C)[C@@H]12 (stereo not given in full) | 0.323 µM | 2.61 µM | 0.882 µM | > 100 µM | 0.918 µM | > 100 µM | 0.332 µM | > 45.7 µM | 0.399 µM | 2.25 µM | 1.09 µM | 3.88 µM | 1.92 µM | > 27.3 µM | 0.46 µM | 3.03 µM | 0.832 µM | 25.7 µM | 0.209 µM | 0.618 µM
2 | CCN(Cc1ccccc1)c1ccc(CO)c(Cl)c1 | 30.2 µM | > 100 µM | 22.5 µM | > 59.4 µM | 20.1 µM | 74.5 µM | 2.69 µM | > 100 µM | 20.1 µM | > 65.1 µM | 21.2 µM | > 100 µM | 0.164 µM | 0.593 µM | 29.2 µM | > 100 µM | 51.4 µM | > 100 µM | 0.104 µM | 0.695 µM
3 | COc1cccc(/C=C/[N+](=O)[O-])c1 | 2.49 µM | 6.06 µM | 2.26 µM | 5.64 µM | 19 µM | 76.2 µM | 2.92 µM | 11.5 µM | 2.01 µM | 4.63 µM | 6.41 µM | 20.8 µM | 12.3 µM | 27.6 µM | 2.39 µM | 6.28 µM | 16.5 µM | 37 µM | 3.29 µM | 12.8 µM
4 | COc1cc2ncn(-c3cc(O[C@@H](C)c4ccccc4Cl)c(C(N)=O)s3)c2cc1OC | 2.89 µM | > 25 µM | 0.727 µM | > 25 µM | 6.66 µM | > 25 µM | 0.983 µM | > 25 µM | 1.76 µM | > 25 µM | 1.19 µM | > 25 µM | 1.29 µM | > 25 µM | 3.84 µM | > 25 µM | 2.7 µM | > 25 µM | 0.638 µM | > 25 µM
5 | O=c1cc(N2CCN(CCCCCOc3cc(O)c4c(=O)cc(-c5ccccc5)oc4c3)CC2)c2ccccc2o1 | > 100 µM | > 100 µM | 89 µM | > 100 µM | > 100 µM | > 100 µM | 15.4 µM | > 100 µM | 53.2 µM | > 100 µM | 13.1 µM | > 100 µM | > 100 µM | > 100 µM | 61.8 µM | > 100 µM | > 100 µM | > 100 µM | 36.2 µM | > 100 µM
6 | CNC(=S)NC(=O)c1c(Cl)n(C(=O)OC(C)(C)C)c2ccccc12 | 89.6 µM | > 100 µM | 94.2 µM | > 100 µM | 39.7 µM | > 100 µM | > 100 µM | > 100 µM | 83 µM | > 100 µM | 33.7 µM | > 100 µM | 73.8 µM | > 100 µM | > 100 µM | > 100 µM | 79.9 µM | > 100 µM | 56.2 µM | > 100 µM
7 | C=C1C(=O)O[C@H]2[C@H]1CC/C(COC(=O)c1cc3ccccc3o1)=C\CC[C@@]1(C)O[C@@H]21 | 1.44 µM | 2.76 µM | 1.18 µM | 2.45 µM | 2.02 µM | 6.12 µM | 1.15 µM | 7.43 µM | 1.43 µM | 3.13 µM | 1.64 µM | 3.55 µM | 1.88 µM | 3.75 µM | 1.75 µM | 3.59 µM | 3.16 µM | 13.3 µM | 1.68 µM | 3.23 µM
8 | O=c1ccs[nH]1 | – | 17.8 µM | – | > 91.3 µM | – | 27.2 µM | – | 64.6 µM | – | 26.2 µM | – | 28.6 µM | – | 36.3 µM | – | 67.5 µM | – | > 89.1 µM | – | 39.8 µM
9 | Cc1ccc2c(-c3ccnc(Nc4ccccc4)n3)c(-c3ccc(F)cc3)nn2n1 | 1.26 µM | > 25 µM | 7.59 µM | > 25 µM | 6.53 µM | > 25 µM | 13.5 µM | > 25 µM | 9.56 µM | > 25 µM | 8.25 µM | > 25 µM | 8.25 µM | > 25 µM | 12.2 µM | > 25 µM | 14.4 µM | > 25 µM | 7.82 µM | > 25 µM
10 | Cc1cc(-c2nc3sccn3c2/C=N/N=C(N)N)c(C)s1 | 19.1 µM | 36.8 µM | 14.2 µM | 27.8 µM | 10.5 µM | 23.4 µM | 15.1 µM | 39.1 µM | 15.8 µM | 29.3 µM | 15.3 µM | 29 µM | 14 µM | 26.9 µM | 16.5 µM | 31.5 µM | 16.2 µM | 32.8 µM | 14.9 µM | 28.2 µM
11 | NC[C@H]1Nc2ccccc2[C@@H](O)C1O (stereo not given in full) | – | > 100 µM | – | > 100 µM | – | > 100 µM | – | > 100 µM | – | > 100 µM | – | > 100 µM | – | > 100 µM | – | > 100 µM | – | > 100 µM | – | > 100 µM
